Measurements reported in patent publication US20170304369A1, “METHODS OF DIFFERENTIATING STEM CELLS INTO LIVER CELL LINEAGES” (Agency for Science, Technology and Research, priority 2014, published 2017).
Entries after “also recorded” stand apart in the source; their conditions may differ. Where two headings read alike, the source gives them in different places. One block for each molecule: values may come before it.

Key:
adult human hepatocytes = test: Adult human primary hepatocytes in vitro culture, liver gene expression after 2 days; format: cell-based
Description: RNA was extracted using Zymo RNA extraction kit. RT-quantitative PCR was used to quantify gene expression. […]
The signals that promote hepatocyte specification and/or maturation were considered to also ameliorate such loss of liver maturity and gene expression during in vitro culture. Thus, the signaling pathways that appear to be dysregulated were investigated including Notch, TGFb, Wnt, as well as other major signaling pathways including estrogen, BMP, FGF, PKA/cAMP pathways, in order to determine the effects on liver genes after 2 days.

hPSC-derived LB cells = test: Hepatic progenitor specification from hPSC-derived LB cells (days 7-12), liver gene expression; settings: for subsequent expression of liver genes: brief treatment of LB cells for 2 days
Method: (§1) mTeSR1-grown hPSCs were cultured and differentiated as follows: • a) hPSCs cells were seeded at 1:12 as small clumps using Accutase (Millipore, Cat#SCR005) and Geltrex (Lifetech, Cat#A1413302). • b) Anterior Primitive Streak (day 1) was specified using Activin A (100 ng/ml), CHIR99021 (3 μM), PI-103 (50 nM) and Fgf2 (10 ng/ml) in serumless CDM2 basal medium for 24 hr. • c) Activin A (100 ng/ml) and DM3189 (250 nM) and PI-103 (50 nM) were added in the same basal medium for 24 hr to induce Definitive Endoderm (DE) (day 2). • d) DE was then patterned into PFG by using A83-01 (1 μM), RA (2 μM), BMP4 (30 ng/ml) and Fgf2 (10 ng/ml) in CDM KOSR basal media for another 24 hrs. • e) PFG was further differentiated to LB progenitors using Activin A (100 ng/ml), 8-bromo-CAMP (1 mM) and BMP4 (10 ng/ml) in CDM KOSR basal media for 3 days (day 4 to 6). • f) LB progenitors were treated with BMP4 (10 ng/ml), Oncostatin M (10 ng/ml), Dexamethasone ([…]), DAPT, C59 (1 μM) or RO4919097 (2 μM), forskolin ([…]), human recombinant insulin (10 μg/ml), ascorbic acid-2 phosphate (200 μg/ml), L-gluthathione ([…]) and amino acid concentrate and in IMDM/F12 media for the next 6 days (day 7 to 12) to induce hepatic progenitors. • g) Hepatic progenitors were treated with Dexamethasone (10 μM), RO4929097 (2 μM) or DAPT (10 μM), Forskolin (10 μM), human recombinant insulin (10 μg/ml), ascorbic acid-2 phosphate (200 μg/ml) in IMDM/F12 media for 6 days (day 13 to 18) to generate hepatocyte-like cells. Intra-Splenic Transplantation into FRG^−/− Mice
(§2) RNA was extracted using Zymo RNA extraction kit. RT-quantitative PCR was used to quantify gene expression. Primer sequences were designed by NCBI Primer Tool and primer specificity and linearity was tested before usage for gene expression analyses.
To identify the signals that regulate the progression of the LB progenitors from an ALB- to a more differentiated ALB+ state, multiple signaling pathways were systematically screened for their effects on ALB expression (including FGF, WNT, Notch, HGF, cAMP/PKA, TGFβ, and BMP).

PFG cells = test: Liver bud (LB) specification from posterior foregut, days 4-6, gene expression; format: cell-based, human; settings: for LB gene expression / expansion: addition at the LB specification stage; for subsequent expression of ALB: treatment during LB specification, then hepatic specification medium
Method: as §1, §2
The signaling pathways, including Retinoic, Nodal/Activin, Bmp, PKA, FGF and Wnt signaling, were explored to determine if they could directly regulate LB specification.

hepatic progenitors = test: Treatment of hepatic progenitors (days 13-18), hepatocyte-like cell, periportal versus perivenous gene expression; format: cell-based, human
hPSC-derived DE = test: Foregut specification: treatment of hPSC-derived DE (day 3), downstream gene expression by RT-qPCR; format: cell-based, human
Description: RT-quantitative PCR was used to quantify gene expression. […] During liver development, populations of definitive endoderm cells are first patterned along the anterior-posterior axis to form either the foregut or mid/hindgut. In the present invention the effects of signaling inhibition on the developmental competence of the foregut cells to give rise to the liver bud (LB) cells was examined. Competence is defined as the capacity of one stem cell or progenitor cell to differentiate into its daughter cell type. For example, the posterior foregut is competent when it could give rise to its daughter cell types such as the pancreatic endoderm and LB cells.

[1] = on removal of the component from a cocktail of signaling factors
[2] = subtraction from BCDEFV cocktail, day 10
[3] = 24 h during foregut specification

Molecule: Cc1cnc(-c2cnc(NCCNc3ccc(C#N)cn3)nc2-c2ccc(Cl)cc2Cl)[nH]1 [CHIR99201, 6-[[2-[[4-(2,4-dichlorophenyl)-5-(5-methyl-1H-imidazol-2-yl)-2pyrimidinyl]amino]ethyl]amino]-3-pyridinecarbonitrile]
GLT and GS expression (adult human hepatocytes; [1]): decrease | expression of periportal genes like ARG1, SERDH, CPS1 (adult human hepatocytes; [1]): increased | ALB expression (hPSC-derived LB cells; [2]): inhibits | expansion and self-renewal of LB progenitors (PFG cells): enhance | LB gene expression (PFG cells): higher | expansion (PFG cells): promotes

expression of PAH, HGD, HPD, TAT, MAI, FAH, CYP3A4, ALB and CPS1 (hPSC-derived LB cells): enhancement
Molecule: O=C1O[C@H]([C@@H](O)CO)C(O)=C1OP(=O)(O)O [AA2P, L-ascorbic acid 2-phosphate]
liver maturation (hPSC-derived LB cells; days 7 to 12 and days 13 to 16): significantly promoted

perivenous gene expression (e.g. members of the CYP1, CYP2 and CYP3 families) (adult human hepatocytes): reducing | expression of functional liver enzymes such as FAH, PAH, HGD, HPD, TAT, CPS1, CYP3A4 (hPSC-derived LB cells; days 9-12): enhances
Molecule: Nc1ncnc2c1nc(Br)n2[C@@H]1O[C@@H]2COP(=O)(O)O[C@H]2[C@H]1O [8-bromoCAMP]
periportal gene expression (adult human hepatocytes): promote | expression of cytochrome genes (adult human hepatocytes; [1]): increased | hepatic progenitor marker ALB expression (hPSC-derived LB cells; days 9-12): promotes | expression of LB markers including AFP, CEBPA, HNF6, HNF1B, PROX1, TBX3 and HNF4A (PFG cells; during LB specification): significantly increase

expression of the majority of cytochrome enzymes (CYP1A1, CYP1A2, CYP2C19, CYP2C9, CYP2D6, CYP2E1, CYP3A4, CYP3A5, CYP3A7, CYP7A1) (adult human hepatocytes): upregulated
Molecule: CC(C)(C(=O)NCC(F)(F)C(F)(F)F)C(=O)N[C@@H]1C(=O)Nc2ccccc2-c2ccccc21 [R04929097, Propanediamide, N1-[(7S)-6,7-dihydro-6-oxo-5H-dibenz[b,d]azepin-7-yl]-2,2-dimethyl-N3-(2,2,3,3,3-pentafluoropropyl)-]
SOX9 expression (hPSC-derived LB cells; Notch inhibition): reducing | ALB expression (hPSC-derived LB cells; added to hPSC-derived LB cells): enhance

Molecule: HGF: Hepatocyte growth factor
ALB expression (hPSC-derived LB cells; added to hPSC-derived LB cells): promotes

Molecule: C[N+](C)(C)CCO.[Cl-] [choline chloride]
expression of ALB, FAH, PAH, TAT, CYP3A4, CYP3A7, AAT, THR, FBA, FBB, FBG and TBX3 (hPSC-derived LB cells; higher levels of phospholipid precursor): increases

expression of functional liver enzymes such as FAH, PAH, HGD, HPD, TAT, CPS1, CYP3A4 (hPSC-derived LB cells): enhances
Molecule: C=C[C@@]1(C)CC(=O)[C@]2(O)[C@@]3(C)[C@@H](O)CCC(C)(C)[C@@H]3[C@H](O)[C@H](OC(C)=O)[C@@]2(C)O1 [Forskolin]

Molecule: CC(=N)NCc1cccc(CN)c1.Cl.Cl [1400 W dihydrochloride, N-[[3-(Aminomethyl)phenyl]methyl]-ethanimidamide dihydrochloride]
expression of FAH, PAH, HGD, TAT, CPS1, ARG1, FBA, FBB and FBG (hepatic progenitors; PKG antagonists): upregulate

Molecule: Nc1ncnc2c1ncn2[C@@H]1O[C@@H]2COP(O)(=S)O[C@H]2[C@H]1O (some centres unmarked) [spCAMP]
periportal gene expression (adult human hepatocytes): promote | perivenous gene expression (e.g. members of the CYP1, CYP2 and CYP3 families) (adult human hepatocytes): reducing

Molecule: Cc1cccc(-c2nn(C(=S)Nc3ccccc3)cc2-c2ccnc3ccccc23)n1 [A83-01, 3-(6-Methyl-2-pyridinyl)-N-phenyl-4-(4-quinolinyl)-1H-pyrazole-1-carbothioamide]
expression of CYP1A1, CYP1A2, CYP2C19, CYP2C9, CYP3A4, CYP3A5, CYP3A7 and CYP7A1 (adult human hepatocytes; TGFβ inhibition): increased | subsequent expression of ALB (PFG cells): reduces

Molecule: CC(=O)Nc1cccc(-n2c(=O)n(C3CC3)c(=O)c3c(Nc4ccc(I)cc4F)n(C)c(=O)c(C)c32)c1 [GSK1120212]
subsequent expression of liver genes (hPSC-derived LB cells): higher

expression of CYP3A5, CYP3A7, CYP3A4, CYP2D1, CYP2E1, and CYP1A1 (hepatic progenitors): enhance
Molecule: CC1=C(/C=C/C(C)=C\C=C\C(C)=C\C(=O)O)C(C)(C)CCC1 [9-Cis-RA, 3,7-Dimethyl-9-(2,6,6-trimethyl-1-cyclohexen-1-yl)nona-2E,4E,6Z,8E-tetraenoic acid]
expression of periportal genes such as ARG1, OTC, ASL1 and CPS1 (hepatic progenitors): reduces

expression of the majority of cytochrome enzymes (CYP1A1, CYP1A2, CYP2C19, CYP2C9, CYP2D6, CYP2E1, CYP3A4, CYP3A5, CYP3A7, CYP7A1) (adult human hepatocytes): upregulated
Molecule: C[C@H](NC(=O)Cc1cc(F)cc(F)c1)C(=O)NC(C(=O)OC(C)(C)C)c1ccccc1 (some centres unmarked) [DAPT]
SOX9 expression (hPSC-derived LB cells; Notch inhibition): reducing | ALB expression (hPSC-derived LB cells; added to hPSC-derived LB cells): enhance

Molecule: FGF2: activator of FGF signaling
ALB expression (hPSC-derived LB cells; 20 ng/ml): reduction | SOX9 expression (hPSC-derived LB cells; 20 ng/ml): slightly increase | ALB expression (hPSC-derived LB cells; [2]): inhibits | expansion and self-renewal of LB progenitors (PFG cells): enhance | LB gene expression of HNF1A, HNF6, PROX1, TBX3, HNF4A, AFP, CEBPA, HNF1B (PFG cells; addition in CDM KOSR base media): did not benefit | subsequent liver bud gene expression of CEBPA, HNF1A, HNF6, PROX1 (hPSC-derived DE; provided to DE cells during foregut specification): increase

expression of CYP1A1, CYP1A2, CYP2C19, CYP2C9, CYP3A4, CYP3A5, CYP3A7 and CYP7A1 (adult human hepatocytes): increased | competence of hepatic progenitors to generate hepatocyte-like cells (hPSC-derived LB cells): reduces | expression of liver genes such as ALB, CYP3A4, CPS1, FAH, TAT, PAH, HGD, HPD and MAI (hPSC-derived LB cells): lower
Molecule: Cc1cccc(-c2[nH]c(C(C)(C)C)nc2-c2ccc3c(c2)OCO3)n1 [SB505124, 2-[4-(1,3-Benzodioxol-5-yl)-2-(1,1-dimethylethyl)-1H-imidazol-5-yl]-6-methyl-pyridine]
effect on the cytochrome expression compared with A83-01 (adult human hepatocytes): stronger | later functional liver gene expression of TAT, FAH, PAH, HGD, HPD, and MAI (hPSC-derived LB cells; brief treatment on days 7-8): higher | subsequent expression of ALB (PFG cells): reduces

Molecule: CCN(CC)CCCCNc1ncc2cc(-c3cc(OC)cc(OC)c3)c(NC(=O)NC(C)(C)C)nc2n1 [PD173074, N-[2-[[4-(Diethylamino)butyl]amino]-6-(3,5-dimethoxyphenyl)pyrido[2,3-d]pyrimidin-7-yl]-N′-(1,1-dimethylethyl)urea]
subsequent expression of liver genes (hPSC-derived LB cells): higher

Molecule: c1ccc2c(-c3cnn4cc(-c5ccc(N6CCNCC6)cc5)cnc34)ccnc2c1 [BM3189]
ALB expression (hPSC-derived LB cells; added to hPSC-derived LB cells): decreased

Molecule: Cc1ccc2nc(NC(=O)CSc3nc4c(c(=O)n3-c3ccccc3)SCC4)sc2c1 [IWP2, N-(6-Methyl-2-benzothiazolyl)-2-[(3,4,6,7-tetrahydro-4-oxo-3-phenylthieno[3,2-d]pyrimidin-2-yl)thio]-acetamide]
downstream LB gene expression (AFP, CEBPA, TBX3, HNF1B) (hPSC-derived DE; [3]): severely reduces | expression of MHG markers CDX2 and EVX1 (hPSC-derived DE; [3]): reduces | HNF6, PROX1 and HEX expression (hPSC-derived DE; Wnt inhibition during foregut specification): upregulated

Molecule: O=C(NOC[C@H](O)CO)c1ccc(F)c(F)c1Nc1ccc(I)cc1F [PD0325901, N-[(2R)-2,3-Dihydroxypropoxy]-3,4-difluoro-2-[(2-fluoro-4-iodophenyl)amino]-benzamide]
LB gene expression (HNF1A, HNF6, PROX1, TBX3, HNF4A) (PFG cells; inhibition of FGF/MAPK signaling): reduced

Molecule: Nc1ncnc2c1ncn2[C@@H]1O[C@@H]2CO[P@@](O)(=S)O[C@H]2[C@H]1O [RpCAMP]
p450 cytochrome expression (adult human hepatocytes): promoted

perivenous xenobiotic gene expression (e.g. CYP3A4, CYP3A5 and CYP3A7) (adult human hepatocytes): increased
Molecule: Wnt3A
LB gene expression (PFG cells): higher | expansion (PFG cells): promotes

B1: OSM: Oncostatin M (protein, UniProt P13725 26-221, looked up)
Oncostatin-M: AAIGSCSKEYRVLLGQLQKQTDLMQDTSRLLDPYIRIQGLDVPKLREHCRERPGAFPSEETLRGLGRRGFLQTLNATLGCVLHRLADLEQRLPKAQDLERSGLNIEDLEKLQMARPNILGLRNNIYCMAQLLDNSDTAEPTKAGRGASQPPTPTPASDAFQRKLEGCRFLHGYHRFMHSVGRVFSKWGESPNRSRR
ALB expression (hPSC-derived LB cells; added to hPSC-derived LB cells): promoted

B2: BMP4: activator of BMP signaling (protein, UniProt P12644 293-408, looked up)
Bone morphogenetic protein 4: SPKHHSQRARKKNKNCRRHSLYVDFSDVGWNDWIVAPPGYQAFYCHGDCPFPLADHLNSTNHAIVQTLVNSVNSSIPKACCVPTELSAISMLYLDEYDKVVLKNYQEMVVEGCGCR
ALB expression (hPSC-derived LB cells; added to hPSC-derived LB cells): promote; also recorded: increased | LB specification (PFG cells): promotes | dose that maximally induces expression of LB genes (HNF4A, PROX1, AFP, TBX3, HNF1B, HNF1A, HNF6, CEBPA) (PFG cells): 30 to 40 ng/mL | pancreatic specification (PFG cells): inhibited | competence to generate LB cells (hPSC-derived DE; treatment during foregut specification): mildly enhanced
